Values of other authors as cited in patent US20050119246A1, “1H-pyrazolyl derivative compounds, for use in diseases associated with the 5-ht2c receptor” (Bayer Pharmaceuticals Corporation, priority 2001, published 2005).

What was measured:
5-HT2C receptor = molecular target: T1, 5-HT2C receptor (Homo sapiens, UniProt P28335); conditions: background statement; comparator receptors not named
T1 sequence (P28335 33-458): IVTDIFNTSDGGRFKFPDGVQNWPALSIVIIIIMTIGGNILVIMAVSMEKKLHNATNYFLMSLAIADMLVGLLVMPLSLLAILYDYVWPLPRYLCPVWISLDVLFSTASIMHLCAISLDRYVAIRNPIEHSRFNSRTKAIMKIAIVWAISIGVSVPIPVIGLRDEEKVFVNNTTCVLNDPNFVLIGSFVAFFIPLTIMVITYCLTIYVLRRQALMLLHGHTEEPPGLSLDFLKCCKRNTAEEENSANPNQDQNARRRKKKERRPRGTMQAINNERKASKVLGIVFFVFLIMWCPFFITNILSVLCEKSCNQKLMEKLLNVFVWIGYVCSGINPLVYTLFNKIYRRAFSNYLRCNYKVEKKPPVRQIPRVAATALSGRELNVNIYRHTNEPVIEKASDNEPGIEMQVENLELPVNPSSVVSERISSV

5-HT2 receptors = conditions: background statement

SMILES	selectivity of 5-HT2C receptor antagonist (5-HT2C receptor)	pKi for the 5-HT2 receptors (5-HT2 receptors)	selectivity for the 5-HT2 receptors over 5-HT1 receptors (5-HT2 receptors)
Cc1cc2c(cc1Cl)N(C(=O)Nc1ccc(Oc3cccnc3C)nc1)CC2 [SB-242084]	at least 100 fold		
Cc1nc2sccn2c(=O)c1CCN1CCC(=C(c2ccc(F)cc2)c2ccc(F)cc2)CC1 [ritanserin]		8.9	10,000 fold
